Reference: US20250275559A1, “SATURATED FATTY ACIDS AND THEIR USE TO MODIFY TASTE” (Firmenich Incorporated, priority 2022, published 2025)

Legend:
Type in all cases: cell-based
T2R10 (TAS2R10) = target: T1, T2R10 (TAS2R10) (Homo sapiens, UniProt Q9NYW0); experiment: FLIPR calcium assay, block of bitter agonist response in cells transfected with T2R10; conditions: saturated fatty acid concentration of 200 μM, read-out: percentage block of cellular response over baseline, 10
T1 construct: expressed in transfected cells; host or cells: cells expressing a promiscuous G protein (e.g., G16g44)
T1 sequence (Q9NYW0 1-307): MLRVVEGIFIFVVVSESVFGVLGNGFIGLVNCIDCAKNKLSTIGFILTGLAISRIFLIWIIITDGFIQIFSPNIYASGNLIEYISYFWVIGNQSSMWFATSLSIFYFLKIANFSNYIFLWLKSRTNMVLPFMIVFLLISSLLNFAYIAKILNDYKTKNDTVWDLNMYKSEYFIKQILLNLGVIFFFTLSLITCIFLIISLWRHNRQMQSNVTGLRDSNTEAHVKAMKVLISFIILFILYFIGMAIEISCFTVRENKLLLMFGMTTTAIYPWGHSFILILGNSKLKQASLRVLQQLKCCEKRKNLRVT
Description: (§1) Cells expressing a promiscuous […] (e.g., G16g44) were transfected with vectors encoding 5 functional bitter receptor cDNAs, with one receptor per transfection. The cells were transfected directly in 384-well format high-density plates and incubated for 28 hours. Later, cells were loaded with the Ca-specific dye Fluo4-AM. After an incubation of 60 minutes, excess dye is washed off, and cells are stimulated with various saturated fatty acids while simultaneously recording changes in intracellular fluorescence using a FLIPR instrument.
(§2) The above protocol was carried out using 13 different saturated fatty acids. […] Table 2 indicates the thirteen (13) compounds tested by their compound number from Table 1 above. The 6 bitter taste receptors are the human bitter taste receptors, that we named T2R01 (TAS2R01), T2R08 (TAS2R08), T2R10 (TAS2R10), T2R14 (TAS2R14), T2R54 (TAS2R39), and T2R75 (TAS2R46). The corresponding IUPHAR nomenclature for each receptor is given in parenthesis. In Table 2, these receptors are identified by the last two digits. For example, T2R01 is indicated as 01. Table 2 reports the percentage block of cellular response over baseline at a saturated fatty acid concentration of 200 μM.

T2R14 (TAS2R14) = target: T2, T2R14 (TAS2R14) (Homo sapiens, UniProt Q9NYV8); experiment: FLIPR calcium assay, block of bitter agonist response in cells transfected with T2R14; conditions: saturated fatty acid concentration of 200 μM
T2 construct: expressed in transfected cells; host or cells: cells expressing a promiscuous G protein (e.g., G16g44)
T2 sequence (Q9NYV8 1-317): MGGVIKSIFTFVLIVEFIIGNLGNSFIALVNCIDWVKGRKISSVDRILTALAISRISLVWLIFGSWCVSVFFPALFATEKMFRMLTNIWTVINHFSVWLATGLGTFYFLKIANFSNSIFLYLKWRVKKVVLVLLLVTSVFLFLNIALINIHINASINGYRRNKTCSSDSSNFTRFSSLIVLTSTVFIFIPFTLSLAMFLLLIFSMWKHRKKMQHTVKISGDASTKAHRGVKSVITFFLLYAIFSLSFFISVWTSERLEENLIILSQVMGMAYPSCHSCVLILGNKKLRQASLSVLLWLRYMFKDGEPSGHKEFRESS
Description: as §1, §2

T2R01 (TAS2R01) = target: T3, T2R01 (TAS2R01) (Homo sapiens, UniProt Q9NYW7); experiment: FLIPR calcium assay, block of bitter agonist response in cells transfected with T2R01; conditions: saturated fatty acid concentration of 200 μM, read-out: percentage block of cellular response over baseline, 01
T3 construct: expressed in transfected cells; host or cells: cells expressing a promiscuous G protein (e.g., G16g44)
T3 sequence (Q9NYW7 1-299): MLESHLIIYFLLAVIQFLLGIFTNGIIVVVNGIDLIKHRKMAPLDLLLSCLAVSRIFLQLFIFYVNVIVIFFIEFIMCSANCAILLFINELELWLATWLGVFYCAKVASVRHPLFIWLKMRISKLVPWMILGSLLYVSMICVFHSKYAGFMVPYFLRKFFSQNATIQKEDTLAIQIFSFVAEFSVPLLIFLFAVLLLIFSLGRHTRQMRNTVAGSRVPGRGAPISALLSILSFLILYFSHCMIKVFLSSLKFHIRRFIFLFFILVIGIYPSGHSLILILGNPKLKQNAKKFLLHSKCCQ
Description: as §1, §2

T2R08 (TAS2R08) = target: T4, T2R08 (TAS2R08) (Homo sapiens, UniProt Q9NYW2); experiment: FLIPR calcium assay, block of bitter agonist response in cells transfected with T2R08; conditions: saturated fatty acid concentration of 200 μM, read-out: percentage block of cellular response over baseline, 08
T4 construct: expressed in transfected cells; host or cells: cells expressing a promiscuous G protein (e.g., G16g44)
T4 sequence (Q9NYW2 1-309): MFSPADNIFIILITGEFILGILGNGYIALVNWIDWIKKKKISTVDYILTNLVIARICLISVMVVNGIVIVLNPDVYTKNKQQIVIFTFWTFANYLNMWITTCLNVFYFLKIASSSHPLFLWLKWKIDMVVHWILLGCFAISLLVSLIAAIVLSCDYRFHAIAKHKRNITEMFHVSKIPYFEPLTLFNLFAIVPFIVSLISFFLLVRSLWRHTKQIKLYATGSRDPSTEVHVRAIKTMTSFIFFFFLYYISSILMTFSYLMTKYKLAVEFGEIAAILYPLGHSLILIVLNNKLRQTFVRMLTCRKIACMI
Description: as §1, with “instrument. Bitter agonist and responding receptors were identified.” for “instrument.”
as §2, with “acids. A particular T2R receptor was identified as being antagonized by a particular saturated fatty acid if it triggered a >25% block of agonist's cellular response at 200 µM concentration of saturated fatty acid.” for “acids.”

T2R75 (TAS2R46) = target: T5, T2R75 (TAS2R46) (Homo sapiens, UniProt P59540); experiment: FLIPR calcium assay, block of bitter agonist response in cells transfected with T2R75; conditions: saturated fatty acid concentration of 200 μM
T5 construct: expressed in transfected cells; host or cells: cells expressing a promiscuous G protein (e.g., G16g44)
T5 sequence (P59540 1-309): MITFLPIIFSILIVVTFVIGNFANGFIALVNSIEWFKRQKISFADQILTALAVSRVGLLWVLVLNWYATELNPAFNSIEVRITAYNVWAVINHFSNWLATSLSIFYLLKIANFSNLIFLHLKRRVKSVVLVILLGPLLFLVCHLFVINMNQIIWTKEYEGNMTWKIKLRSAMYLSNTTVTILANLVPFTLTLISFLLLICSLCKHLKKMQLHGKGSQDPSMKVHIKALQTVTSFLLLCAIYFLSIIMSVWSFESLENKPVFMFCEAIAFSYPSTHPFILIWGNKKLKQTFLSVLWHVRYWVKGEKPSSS
Description: as §1, §2

T2R54 (TAS2R39) = target: T6, T2R54 (TAS2R39) (Homo sapiens, UniProt P59534); experiment: FLIPR calcium assay, block of bitter agonist response in cells transfected with T2R54; conditions: saturated fatty acid concentration of 200 μM
T6 construct: expressed in transfected cells; host or cells: cells expressing a promiscuous G protein (e.g., G16g44)
T6 sequence (P59534 1-338): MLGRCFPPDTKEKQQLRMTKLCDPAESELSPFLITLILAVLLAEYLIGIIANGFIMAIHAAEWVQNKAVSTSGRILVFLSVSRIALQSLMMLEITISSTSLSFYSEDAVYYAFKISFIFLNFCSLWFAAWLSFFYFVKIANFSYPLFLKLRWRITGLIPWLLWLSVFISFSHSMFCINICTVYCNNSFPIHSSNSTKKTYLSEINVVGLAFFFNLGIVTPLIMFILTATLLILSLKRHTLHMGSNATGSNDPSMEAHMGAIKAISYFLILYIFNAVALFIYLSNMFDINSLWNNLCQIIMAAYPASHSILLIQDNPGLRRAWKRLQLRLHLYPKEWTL
Description: as §1, §2

SMILES | inhibition at 200 µM (T2R10 (TAS2R10)) [%] | percentage block of cellular response over baseline, 14 (T2R14 (TAS2R14)) [%] | inhibition at 200 µM (T2R01 (TAS2R01)) [%] | inhibition at 200 µM (T2R08 (TAS2R08)) [%] | percentage block of cellular response over baseline, 75 (T2R75 (TAS2R46)) [%] | percentage block of cellular response over baseline, 54 (T2R54 (TAS2R39)) [%]
CCCCCCCCCCCC(=O)O [Compound 106, Dodecanoic acid (Lauric acid)] | > 85 | 65 | > 35 | 40 |  | 
CCCCC(CC)CCC(=O)O (stereo not drawn) [Compound 120, 4-Ethyloctanoic acid] | > 50 |  | > 30 | > 25 | 25 | 95
CCCCCC(C)C(=O)O (stereo not drawn) [Compound 117, 2-Methylheptanoic acid] | 30 |  |  | 30 |  | 80
CCCCCC(C)CCC(=O)O (stereo not drawn) [Compound 121, 4-Methylnonanoic acid] | > 85 | >40 | > 50 | > 55 |  | 
CCCCC(C)CCC(=O)O (stereo not drawn) [Compound 119, 4-Methyloctanoic acid] | > 60 |  | 40 | 45 |  | 
CCCCC(C)C(=O)O (stereo not drawn) [Compound 114, 2-Methylhexanoic acid] |  |  |  |  |  | 50
CCCCCCCCCC(=O)O [Compound 104, Decanoic acid (Capric acid)] | > 95 | >55 | > 75 | > 65 | >50 | >75
CCCCCCCC(=O)O [Compound 102, Octanoic acid (Caprylic acid)] | 40 | >25 | > 30 |  | 30 | 90
CCCCCCCCCCC(=O)O [Compound 105, Undecanoic acid] | > 95 | >85 | > 75 |  |  | 
CCCCCCCCCCCCC(=O)O [Compound 107, Tridecanoic acid] |  | >25 |  |  |  | 
CCCCCCCCC(=O)O [Compound 103, Nonanoic acid (Pelargonic acid)] | > 70 | >35 | > 50 | > 50 |  | 
CCCCCCC(=O)O [Compound 101, Heptanoic acid (Enanthic acid)] |  |  |  | 25 |  | 65
CCCCC(CC)C(=O)O (stereo not drawn) [Compound 115, 2-Ethylhexanoic acid] |  |  |  |  |  | 50
